Assay results published in patent publication US5846562A, “Oral composition of fumagillol derivative” (Takeda Chemical Industries, Ltd., priority 1996, dated 1998).
Read-outs that look alike come from different tables or passages of the source.

What was measured:
Colon 26 cancer cells [1] = test: Lung metastasis (tumor colonies) in Colon 26 tumor-bearing mice, oral; format: in vivo, female BALB/c mice; conditions: for T/C (median number of tumor colonies metastasized to the lungs vs untreated control): oral once daily day 7 to day 20, sample solution in Miglyol 812, day 21
Description: (§1) Tumor-bearing mice were provided by transplanting 1×10^5 Colon 26 cancer cells/animal in the flank of female 10-week-old BALB/c mice (Charles River Japan). […] On day 21, the tumor mass at the transplantation site was excised and weighed, and the tumor weight ratio relative to the untreated control group (T/C) was calculated. In addition, the tumor colonies metastasized to the lungs were counted and the median value in each group was compared with that in the untreated control group (T/C).

Colon 26 cancer cells [2] = test: Colon 26 tumor growth inhibition in tumor-bearing mice, oral; format: in vivo, female BALB/c mice; conditions: solution in Miglyol 812
Description: as §1

[3] = Plasma concentration of metabolite after oral compound A with or without famotidine pretreatment; format: in vivo, SD rats; conditions: famotidine-treated group, intragastric pH elevated, vs no famotidine
Description: Famotidine (Sigma) was administered subcutaneously to SD rats fasted overnight (dose; 10 mg/kg). […] Blood was serially drawn from the caudal vein to determine the plasma concentration of metabolites.

[4] = rat, in vivo, po, 100 mg/kg
Excerpt: Blood was collected from the caudal vein periodicaly to determine the plasma concentration of metabolite.

CO[C@@H]1[C@H](OC(=O)NC(=O)CCl)CC[C@]2(CO2)[C@H]1[C@@]1(C)O[C@@H]1CC=C(C)C [Compound A, 6-O-(N-chloroacetylcarbamoyl)fumagillol]
T/C (median number of tumor colonies metastasized to the lungs vs untreated control) (Colon 26 cancer cells [1]; 25 mg/kg): 71%
T/C (median number of tumor colonies metastasized to the lungs vs untreated control) (Colon 26 cancer cells [1]; 50 mg/kg): 52%
effect on tumor metastasis inhibition (Colon 26 cancer cells [1]; oral, solution in Miglyol 812): potent and dose-dependent effect
effect on tumor growth inhibition (Colon 26 cancer cells [2]): potent and dose-dependent effect
absorption [3]: marked increase in absorption
Plasma concentration of metabolite ([4]; 5 min): 15.7 ± 1.6 ng/mL
Plasma concentration of metabolite ([4]; 10 min): 17.3 ± 4.9 ng/mL
Plasma concentration of metabolite ([4]; 30 min): 5.8 ± 3.6 ng/mL
Plasma concentration of metabolite ([4]; 60 min): 0 ng/mL
